# Experimental data taken from US12226414B2, “1-isopropyl-3-methyl-8-(pyridin-3-yl)-1,3-dihydro-2H-imidazo[4,5-c] cinnolin-2-one as selective modulators of ataxia telangiectasia mutated (ATM) kinase and uses thereof” (SUZHOU ZANRONG PHARMA LIMITED, priority 2018, dated 2025).
# What was measured:
# [1] = target: ATM (Homo sapiens (Human), UniProt Q13315); test: ATM biochemical potency assay
# Description: The plate was incubated at room temperature for 10 minutes. […] Data was collected by Caliper.
# [2] = target: ATR (Homo sapiens (Human), UniProt Q13535); test: ATR biochemical potency assay
# Description: ATR enzyme was made by ChemPartner (batch: CP-ATR-20161102-M2). 2× enzyme solutions were prepared in 1× kinase base buffer. 10 μl of 2× enzyme solution (final concentration: 2.5 nM) was added to each well of the 384-well assay plate containing 60 nl compound in each well. The plate was incubated at room temperature for 10 minutes. 2× peptide solutions were prepared with FAM-labeled peptide and ATP in the 1× kinase base buffer. 10 μl of 2× peptide solution was added to each well of the 384-well assay plate, which was incubated at 28° C. for 240 min. 40 μl of stop buffer was added to stop reaction. Data were collected by Caliper.
# [3] = target: PI3Kα (p110α/p85a) (Homo sapiens (Human), UniProt P42336); test: PI3K biochemical potency assay (PI3Kα)
# PI3Kα (p110α/p85a), sequence (P42336 whole entry, looked up): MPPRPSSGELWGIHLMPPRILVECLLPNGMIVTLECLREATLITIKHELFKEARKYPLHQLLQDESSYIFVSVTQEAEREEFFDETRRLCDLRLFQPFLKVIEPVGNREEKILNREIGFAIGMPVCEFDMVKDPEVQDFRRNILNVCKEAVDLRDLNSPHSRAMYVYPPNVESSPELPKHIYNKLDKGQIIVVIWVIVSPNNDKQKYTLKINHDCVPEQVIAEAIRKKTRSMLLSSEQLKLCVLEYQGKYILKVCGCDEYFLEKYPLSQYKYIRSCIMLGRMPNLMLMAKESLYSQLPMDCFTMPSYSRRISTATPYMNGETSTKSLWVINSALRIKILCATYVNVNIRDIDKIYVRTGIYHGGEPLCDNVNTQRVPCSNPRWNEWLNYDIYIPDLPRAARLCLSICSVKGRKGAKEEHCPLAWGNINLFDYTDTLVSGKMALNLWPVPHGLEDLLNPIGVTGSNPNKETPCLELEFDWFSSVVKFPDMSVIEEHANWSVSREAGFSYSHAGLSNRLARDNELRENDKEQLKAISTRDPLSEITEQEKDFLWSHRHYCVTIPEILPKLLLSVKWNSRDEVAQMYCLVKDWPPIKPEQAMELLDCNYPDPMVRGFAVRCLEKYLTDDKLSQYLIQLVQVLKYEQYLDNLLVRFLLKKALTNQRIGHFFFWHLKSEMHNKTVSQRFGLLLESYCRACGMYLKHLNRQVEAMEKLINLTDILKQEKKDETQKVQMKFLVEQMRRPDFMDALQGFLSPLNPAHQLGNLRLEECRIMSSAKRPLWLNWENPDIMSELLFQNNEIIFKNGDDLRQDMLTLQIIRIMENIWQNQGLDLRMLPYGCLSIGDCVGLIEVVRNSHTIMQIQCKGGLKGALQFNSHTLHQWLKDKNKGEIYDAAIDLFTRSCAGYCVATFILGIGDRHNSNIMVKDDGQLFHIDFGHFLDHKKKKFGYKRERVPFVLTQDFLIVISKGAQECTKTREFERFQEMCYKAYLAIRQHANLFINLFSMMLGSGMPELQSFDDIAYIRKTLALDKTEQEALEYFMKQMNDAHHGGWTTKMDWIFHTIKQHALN
# PI3Kα (p110α/p85a), sequence (P27986 whole entry partner, looked up): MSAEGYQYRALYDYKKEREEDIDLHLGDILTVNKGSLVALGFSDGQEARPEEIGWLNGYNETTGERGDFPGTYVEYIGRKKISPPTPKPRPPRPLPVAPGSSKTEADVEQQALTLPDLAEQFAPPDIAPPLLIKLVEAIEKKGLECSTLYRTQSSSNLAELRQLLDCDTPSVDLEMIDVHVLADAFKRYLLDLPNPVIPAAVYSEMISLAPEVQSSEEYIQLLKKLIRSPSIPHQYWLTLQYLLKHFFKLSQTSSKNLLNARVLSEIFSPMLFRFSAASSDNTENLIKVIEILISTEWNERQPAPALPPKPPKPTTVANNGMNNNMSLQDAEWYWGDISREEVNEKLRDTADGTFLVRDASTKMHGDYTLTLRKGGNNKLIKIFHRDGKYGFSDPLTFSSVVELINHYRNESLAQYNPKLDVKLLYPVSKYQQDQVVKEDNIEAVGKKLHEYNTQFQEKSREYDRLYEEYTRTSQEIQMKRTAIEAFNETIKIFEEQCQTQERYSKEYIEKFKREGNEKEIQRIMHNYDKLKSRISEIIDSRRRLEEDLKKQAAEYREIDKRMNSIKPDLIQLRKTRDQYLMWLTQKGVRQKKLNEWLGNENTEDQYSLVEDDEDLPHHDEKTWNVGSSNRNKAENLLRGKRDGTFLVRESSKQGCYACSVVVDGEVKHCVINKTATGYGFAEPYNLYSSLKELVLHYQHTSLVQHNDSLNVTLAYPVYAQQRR
# Description: (§1) PI3Kα (p110α/p85a), PIK3C δ, PIK3Cβ (p110β), PIK3Cγ (pp110γ) kinase reaction solutions of PI3Kα (Invitrogen, Cat. No. PV4788), PIK3Cδ (Invitrogen, Cat. No. PV6452), PIK3Cβ (Millipore, Cat. No. 14-603-K), PIK3Cγ (Invitrogen, Cat. No. PR8641C) enzymes were prepared in 1× kinase buffer at 4-fold of the final concentration (final concentration: PI3Kα 0.7 nM, PIK3Cδ 3 nM, PIK3Cβ 4.8 nM, PIK3Cγ 11 nM) of each reagent in the assay. 2.5 μl of kinase solution was added to each well of the 384-well assay plate, which contains 2.5 μl of compounds with serially diluted concentration. 2× substrate solution was prepared with PIP2 substrate and ATP in 1× kinase reaction buffer at 2-fold of the final concentration of each reagent in the assay. 5 μl of substrate solution was added to each well of the assay plate to start reaction. The assay plate was incubated at room temperature for 1 hour. 5 μl reaction mix was transferred to a new 384 well plate. 5 μl of ADP-Glo reagent (Promega, Cat. No. v9102/3, Lot. No. 0000176563) was added to each well of the new assay plate to stop the reaction. The plate was shaken slowly and equilibrated for 40 minutes. 10 μl kinase detection reagents was added to each well, which was equilibrated for 60 minutes before read on a plate reader (Envision) for luminescence.
# [4] = target: PIK3Cβ (p110β) (Homo sapiens (Human), UniProt P42338); test: PI3K biochemical potency assay (PI3Kβ)
# PIK3Cβ (p110β), sequence (P42338 whole entry, looked up): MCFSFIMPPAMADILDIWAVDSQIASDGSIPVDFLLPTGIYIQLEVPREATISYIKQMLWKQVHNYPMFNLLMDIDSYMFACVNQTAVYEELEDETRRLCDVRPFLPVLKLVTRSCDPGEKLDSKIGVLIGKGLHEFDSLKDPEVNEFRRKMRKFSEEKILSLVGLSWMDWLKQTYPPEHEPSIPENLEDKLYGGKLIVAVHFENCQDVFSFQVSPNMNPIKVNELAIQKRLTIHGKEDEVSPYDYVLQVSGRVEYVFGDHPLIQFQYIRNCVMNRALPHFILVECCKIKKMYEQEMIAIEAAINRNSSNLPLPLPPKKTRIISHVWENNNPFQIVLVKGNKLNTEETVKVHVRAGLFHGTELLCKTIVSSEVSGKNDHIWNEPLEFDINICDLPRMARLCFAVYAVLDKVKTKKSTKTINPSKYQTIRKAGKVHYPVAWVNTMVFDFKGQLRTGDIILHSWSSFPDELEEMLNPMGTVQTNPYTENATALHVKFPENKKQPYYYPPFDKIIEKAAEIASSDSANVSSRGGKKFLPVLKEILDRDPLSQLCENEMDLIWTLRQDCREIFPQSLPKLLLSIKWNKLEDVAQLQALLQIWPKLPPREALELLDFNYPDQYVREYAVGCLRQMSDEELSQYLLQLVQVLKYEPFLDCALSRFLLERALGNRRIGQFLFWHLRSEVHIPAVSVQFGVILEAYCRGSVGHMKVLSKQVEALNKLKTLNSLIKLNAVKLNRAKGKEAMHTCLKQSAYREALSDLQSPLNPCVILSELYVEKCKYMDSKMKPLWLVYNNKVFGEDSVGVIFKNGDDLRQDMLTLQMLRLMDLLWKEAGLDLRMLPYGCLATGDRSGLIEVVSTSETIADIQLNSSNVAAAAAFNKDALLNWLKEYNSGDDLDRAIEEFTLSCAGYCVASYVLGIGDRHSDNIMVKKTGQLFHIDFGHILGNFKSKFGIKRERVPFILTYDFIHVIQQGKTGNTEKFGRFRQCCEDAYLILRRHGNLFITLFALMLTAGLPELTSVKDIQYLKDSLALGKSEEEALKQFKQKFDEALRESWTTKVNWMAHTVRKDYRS
# PIK3Cβ (p110β), sequence (P27986 whole entry partner, looked up): as the sequence (P27986 whole entry partner, looked up) above
# Description: as §1
# [5] = target: PIK3Cγ (pp110γ) (Homo sapiens (Human), UniProt P48736); test: PI3K biochemical potency assay (PI3Kγ)
# PIK3Cγ (pp110γ), sequence (P48736 whole entry): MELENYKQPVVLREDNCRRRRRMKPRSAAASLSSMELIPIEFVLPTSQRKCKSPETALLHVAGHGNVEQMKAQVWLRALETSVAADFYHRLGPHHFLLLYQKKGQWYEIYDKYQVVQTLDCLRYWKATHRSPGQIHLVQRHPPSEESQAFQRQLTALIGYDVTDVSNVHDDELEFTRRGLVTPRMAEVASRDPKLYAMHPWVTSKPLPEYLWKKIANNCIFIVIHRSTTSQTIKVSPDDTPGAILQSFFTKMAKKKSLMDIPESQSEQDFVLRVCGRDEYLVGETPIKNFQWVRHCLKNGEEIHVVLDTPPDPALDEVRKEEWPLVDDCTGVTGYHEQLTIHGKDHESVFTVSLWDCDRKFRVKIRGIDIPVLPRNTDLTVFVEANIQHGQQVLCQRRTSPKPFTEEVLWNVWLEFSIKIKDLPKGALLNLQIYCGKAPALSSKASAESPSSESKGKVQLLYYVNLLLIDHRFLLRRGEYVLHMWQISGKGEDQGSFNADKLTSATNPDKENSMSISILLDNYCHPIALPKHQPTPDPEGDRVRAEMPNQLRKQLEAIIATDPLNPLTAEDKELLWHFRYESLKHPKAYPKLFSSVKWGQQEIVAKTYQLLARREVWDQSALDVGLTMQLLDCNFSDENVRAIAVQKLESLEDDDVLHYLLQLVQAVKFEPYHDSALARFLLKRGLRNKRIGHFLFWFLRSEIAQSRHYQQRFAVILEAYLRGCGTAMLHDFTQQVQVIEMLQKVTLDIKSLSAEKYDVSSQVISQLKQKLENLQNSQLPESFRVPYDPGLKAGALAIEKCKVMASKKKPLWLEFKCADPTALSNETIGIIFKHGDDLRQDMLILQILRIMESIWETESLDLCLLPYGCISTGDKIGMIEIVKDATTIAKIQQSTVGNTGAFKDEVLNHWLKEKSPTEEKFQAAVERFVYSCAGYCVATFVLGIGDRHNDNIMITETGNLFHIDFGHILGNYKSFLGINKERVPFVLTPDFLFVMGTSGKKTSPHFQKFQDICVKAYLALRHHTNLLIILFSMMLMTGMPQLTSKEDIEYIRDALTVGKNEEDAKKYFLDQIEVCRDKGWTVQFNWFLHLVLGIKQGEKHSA
# Description: as §1
# [6] = target: PIK3Cδ (Homo sapiens (Human), UniProt O00329); test: PI3K biochemical potency assay (PI3Kδ)
# PIK3Cδ, sequence (O00329 whole entry, looked up): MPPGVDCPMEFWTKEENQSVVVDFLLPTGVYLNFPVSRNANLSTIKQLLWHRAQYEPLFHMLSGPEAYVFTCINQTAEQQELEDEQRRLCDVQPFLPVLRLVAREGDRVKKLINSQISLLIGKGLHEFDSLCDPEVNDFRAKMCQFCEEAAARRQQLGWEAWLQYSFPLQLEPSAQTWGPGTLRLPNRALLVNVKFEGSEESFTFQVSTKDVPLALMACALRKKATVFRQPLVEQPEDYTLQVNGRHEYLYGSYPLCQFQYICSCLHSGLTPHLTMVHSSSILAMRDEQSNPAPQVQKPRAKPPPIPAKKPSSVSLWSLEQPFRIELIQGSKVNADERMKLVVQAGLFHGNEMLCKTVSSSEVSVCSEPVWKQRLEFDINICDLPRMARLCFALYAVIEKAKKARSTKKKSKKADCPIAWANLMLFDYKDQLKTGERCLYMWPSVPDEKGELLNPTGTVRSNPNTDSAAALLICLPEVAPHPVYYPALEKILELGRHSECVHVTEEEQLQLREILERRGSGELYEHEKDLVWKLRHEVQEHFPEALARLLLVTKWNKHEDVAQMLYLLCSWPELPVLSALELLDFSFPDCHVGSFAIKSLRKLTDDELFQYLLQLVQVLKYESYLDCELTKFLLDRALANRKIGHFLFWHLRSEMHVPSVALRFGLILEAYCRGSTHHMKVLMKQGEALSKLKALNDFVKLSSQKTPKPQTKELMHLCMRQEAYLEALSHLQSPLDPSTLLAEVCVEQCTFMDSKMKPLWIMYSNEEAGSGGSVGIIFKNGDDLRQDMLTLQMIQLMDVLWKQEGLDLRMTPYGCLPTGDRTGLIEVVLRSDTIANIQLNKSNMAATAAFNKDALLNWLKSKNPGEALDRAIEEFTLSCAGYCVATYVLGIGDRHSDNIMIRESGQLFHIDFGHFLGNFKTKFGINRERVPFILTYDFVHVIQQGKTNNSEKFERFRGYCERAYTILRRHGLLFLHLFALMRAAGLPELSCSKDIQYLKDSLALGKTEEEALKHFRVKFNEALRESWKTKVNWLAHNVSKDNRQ
# PIK3Cδ, sequence (P27986 whole entry partner, looked up): as the sequence (P27986 whole entry partner, looked up) above
# Description: as §1
# [7] = target: mTOR (Homo sapiens (Human), UniProt P42345); test: mTOR biochemical potency assay
# Description: Solution of mTOR enzymes (Millipore, Cat. No. 14-770, Lot. No. 2052551) was prepared in 1× kinase buffer at 4-fold of the final concentration (final concentration: 6 nM) in the assay. 2.5 μl of kinase solution was added to each well of the 384-well assay plate, which contains 2.5 μl of compounds with serially diluted concentration. 2× substrate solution was prepared with ULight-4E-BP1 (Thr37/46) Peptide (PE, Cat. No. TRF0128-M, Lot. No. 1695274) and ATP in 1× kinase reaction buffer at 2-fold of the final concentration of each reagent in the assay. 5 μl of substrate solution was added to each well of the assay plate to start reaction. The assay plate was incubated at room temperature for 30 minutes. Detection solution of kinase quench buffer (EDTA) and Eu-anti-phospho-4E-BP1 antibody (Thr37/46) (PE, Cat. No. TRF0216-M, Lot. No. 1571838) were prepared at 2-fold the desired final concentrations of each reagent in Lance detection buffer. 10 μl of detection solution buffer was added to each well of the assay plate. The assay plate was equilibrated for 60 minutes at room temperature before read on a plate reader (Lance signal (665 nm) from Envision program).
# [8] = target: ATM in SN38 treated HT-29 cells (Homo sapiens (Human), UniProt Q13315); test: ATM SN-38 HT-29 cellular potency assay
# Description: Inhibition of ATM was evaluated in SN38 treated HT-29 cells (ATCC, Cat #HTB-38) by high-Content Imaging System
# HT-29 cells were trypsinized and approximately 10,000 cells were seeded per well to 96-well microplates which were incubated overnight at 37° C. and 5% CO2. Test compounds were added to the 96-well plates which were incubated at 37° C. and 5% CO2 for 1 hour. […] After the plates were rinsed 3 times with PBSA, 50 μl permeabilization buffer (0.1% Triton-X 100 in PBSA) was added and the plates were incubated for 20 minutes at room temperature. After the plates were rinsed once with PBSA, 50 μl primary antibody solution was added and the plates were incubated in at 4° C. overnight. […] The plates were rinsed with PBST 3 times and then 100 μl PBSA were added per well. The plates were sealed with black plate seals.
SMILES,IC50 [1],IC50 [2],IC50 [3],IC50 [4],IC50 [5],IC50 [6],IC50 [7],IC50 [8]
"CC(C)n1c(=O)n(C)c2nnc3cc(F)c(-c4ccc(OCCCN5CCCC5)nc4)cc3c21 [Example 3, 7-fluoro-1-isopropyl-3-methyl-8-(6-(3-(pyrrolidin-1-yl)propoxy)pyridin-3-yl)-1H-imidazo[4,5-c]cinnolin-2(3H)-one]",0.0048 µM,> 10 µM,> 10 µM,> 10 µM,> 10 µM,> 10 µM,> 10 µM,0.011 µM
"CC(C)n1c(=O)n(C)c2nnc3cc(F)c(-c4ccc(COCCN5CC[C@@H](F)C5)nc4)cc3c21 [Example 9, (R)-7-fluoro-8-(6-((2-(3-fluoropyrrolidin-1-yl)ethoxy)methyl)pyridin-3-yl)-1-isopropyl-3-methyl-1H-imidazo[4,5-c]cinnolin-2(3H)-one]",0.035 µM,> 10 µM,> 10 µM,> 10 µM,> 10 µM,> 10 µM,> 10 µM,–
"CC(C)n1c(=O)n(C)c2nnc3cc(F)c(-c4ccc(COCCN5CCC(F)CC5)nc4)cc3c21 [Example 10, 7-fluoro-8-(6-((2-(4-fluoropiperidin-1-yl)ethoxy)methyl)pyridin-3-yl)-1-isopropyl-3-methyl-1H-imidazo[4,5-c]cinnolin-2(3H)-one]",–,> 10 µM,> 10 µM,> 10 µM,> 10 µM,> 10 µM,> 10 µM,–
"Cn1c(=O)n(C2CCOCC2)c2c3cc(-c4ccc(OCCCN5CCCCC5)nc4)c(F)cc3nnc21 [Example 18, 7-fluoro-3-methyl-8-(6-(3-(piperidin-1-yl)propoxy)pyridin-3-yl)-1-(tetrahydro-2H-pyran-4-yl)-1H-imidazo[4,5-c]cinnolin-2(3H)-one]",0.0048 µM,–,–,–,–,–,–,–
"Cn1c(=O)n(C2CCOCC2)c2c3cc(-c4ccc(OCCCN5CCCC5)nc4)c(F)cc3nnc21 [Example 20, 7-fluoro-3-methyl-8-(6-(3-(pyrrolidin-1-yl)propoxy)pyridin-3-yl)-1-(tetrahydro-2H-pyran-4-yl)-1H-imidazo[4,5-c]cinnolin-2(3H)-one]",0.006 µM,–,–,–,–,–,–,–
"CN(C)CC1CCN(c2ccc(-c3cc4c(cc3F)nnc3c4n(C4CCOCC4)c(=O)n3C)cn2)C1 (centres unmarked) [Example 21, 8-(6-(3-((dimethylamino)methyl)pyrrolidin-1-yl)pyridin-3-yl)-7-fluoro-3-methyl-1-(tetrahydro-2H-pyran-4-yl)-1H-imidazo[4,5-c]cinnolin-2(3H)-one]",0.097 µM,–,–,–,–,–,–,–
"Cn1c(=O)n(C2CCOCC2)c2c3cc(-c4ccc(OCCCN5CCC(F)CC5)nc4)c(F)cc3nnc21 [Example 24, 7-fluoro-8-(6-(3-(4-fluoropiperidin-1-yl)propoxy)pyridin-3-yl)-3-methyl-1-(tetrahydro-2H-pyran-4-yl)-1H-imidazo[4,5-c]cinnolin-2(3H)-one]",> 1 µM,–,–,–,–,–,–,–
"Cn1c(=O)n(C2CCOCC2)c2c3cc(-c4ccc(OCCCN5CC[C@@H](F)C5)nc4)c(F)cc3nnc21 [Example 25, (R)-7-fluoro-8-(6-(3-(3-fluoropyrrolidin-1-yl)propoxy)pyridin-3-yl)-3-methyl-1-(tetrahydro-2H-pyran-4-yl)-1H-imidazo[4,5-c]cinnolin-2(3H)-one]",> 1 µM,–,–,–,–,–,–,–

# The next lines start with the values.
IC50 [1],IC50 [2],IC50 [3],IC50 [4],IC50 [5],IC50 [6],IC50 [7],IC50 [8],SMILES
0.0019 µM,> 10 µM,> 10 µM,> 10 µM,> 10 µM,> 10 µM,> 10 µM,0.0015 µM,"CC(C)n1c(=O)n(C)c2nnc3cc(F)c(-c4ccc(OCCCN5CCCCC5)nc4)cc3c21 [Example 1, 7-fluoro-1-isopropyl-3-methyl-8-(6-(3-(piperidin-1-yl)propoxy)pyridin-3-yl)-1H-imidazo[4,5-c]cinnolin-2(3H)-one]"
0.0043 µM,> 10 µM,> 10 µM,> 10 µM,> 10 µM,> 10 µM,> 10 µM,0.27 µM,"CC(C)n1c(=O)n(C)c2nnc3cc(F)c(-c4ccc(OCCCN(C)C)nc4)cc3c21 [Example 2, 8-(6-(3-(dimethylamino)propoxy)pyridin-3-yl)-7-fluoro-1-isopropyl-3-methyl-1H-imidazo[4,5-c]cinnolin-2(3H)-one]"
0.01 µM,> 10 µM,> 10 µM,> 10 µM,> 10 µM,> 10 µM,> 10 µM,–,"CC(C)n1c(=O)n(C)c2nnc3cc(F)c(-c4ccc(N5CCC(N(C)C)CC5)nc4)cc3c21 [Example 4, 8-(6-(4-(dimethylamino)piperidin-1-yl)pyridin-3-yl)-7-fluoro-1-isopropyl-3-methyl-1H-imidazo[4,5-c]cinnolin-2(3H)-one]"
0.065 µM,> 10 µM,> 10 µM,> 10 µM,> 10 µM,> 10 µM,> 10 µM,–,"CC(C)n1c(=O)n(C)c2nnc3cc(F)c(-c4ccc(N5CCC(CN(C)C)C5)nc4)cc3c21 (centres unmarked) [Example 5, 8-(6-(3-((dimethylamino)methyl)pyrrolidin-1-yl)pyridin-3-yl)-7-fluoro-1-isopropyl-3-methyl-1H-imidazo[4,5-c]cinnolin-2(3H)-one]"
0.1 µM,> 10 µM,> 10 µM,> 10 µM,> 10 µM,> 10 µM,> 10 µM,0.071 µM,"CC(C)n1c(=O)n(C)c2nnc3cc(F)c(-c4ccc(COCCN(C)C)nc4)cc3c21 [Example 6, 8-(6-((2-(dimethylamino)ethoxy)methyl)pyridin-3-yl)-7-fluoro-1-isopropyl-3-methyl-1H-imidazo[4,5-c]cinnolin-2(3H)-one]"
0.051 µM,> 10 µM,> 10 µM,> 10 µM,> 10 µM,> 10 µM,> 10 µM,–,"CC(C)n1c(=O)n(C)c2nnc3cc(F)c(-c4ccc(COCCN5CCCC5)nc4)cc3c21 [Example 8, 7-fluoro-1-isopropyl-3-methyl-8-(6-((2-(pyrrolidin-1-yl)ethoxy)methyl)pyridin-3-yl)-1H-imidazo[4,5-c]cinnolin-2(3H)-one]"
0.363 µM,> 10 µM,> 10 µM,> 10 µM,> 10 µM,> 10 µM,> 10 µM,–,"CC(C)n1c(=O)n(C)c2nnc3cc(F)c(-c4ccc(C(=O)NCCN(C)C)nc4)cc3c21 [Example 12, N-(2-(dimethylamino)ethyl)-5-(7-fluoro-1-isopropyl-3-methyl-2-oxo-2,3-dihydro-1H-imidazo[4,5-c]cinnolin-8-yl)picolinamide]"
0.007 µM,–,–,–,–,–,–,–,"CC(C)n1c(=O)n(C)c2nnc3cc(F)c(-c4ccc(OCCCN(C)C)nc4F)cc3c21 [Example 17, 8-(6-(3-(dimethylamino)propoxy)-2-fluoropyridin-3-yl)-7-fluoro-1-isopropyl-3-methyl-1,3-dihydro-2H-imidazo[4,5-c]cinnolin-2-one]"
0.013 µM,–,–,–,–,–,–,–,"CN(C)CCCOc1ccc(-c2cc3c(cc2F)nnc2c3n(C3CCOCC3)c(=O)n2C)cn1 [Example 19, 8-(6-(3-(dimethylamino)propoxy)pyridin-3-yl)-7-fluoro-3-methyl-1-(tetrahydro-2H-pyran-4-yl)-1H-imidazo[4,5-c]cinnolin-2(3H)-one]"
